Measured values taken from PubChem BioAssay AID248 (DTP/NCI, 2004).
Values joined by “and” are separate entries in the source; they are usually repeats but may differ in a detail not shown here. Equal values may be shown once. Inconclusive results and toxic doses are left out. Cut-off read from the data, not from the text of the source: active = T/C of 150% or more; inactive = T/C below 125%.

System: L1210 leukemia ip in BDF1 mice, survival T/C
Assay: NCI In Vivo Anticancer Drug Screen. Data for tumor model L1210 Leukemia (intraperitoneal) in B6D2F1 (BDF1) mice
Conditions: endpoint: mean survival time, higher = longer survival
Outline: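 Each compound was tested against a transplantable tumor grown in mice. The endpoint was survival, with treated animals benchmarked against vehicle controls as a simple ratio.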

[1] = dose: 100.0 mg/kg/injection, schedule: Q04DX003 (ip), vehicle: saline with Tween-80
[2] = dose: 200.0 mg/kg/injection, schedule: Q04DX003 (ip), vehicle: saline with Tween-80
[3] = dose: 400.0 mg/kg/injection, schedule: Q04DX003 (ip), vehicle: saline with Tween-80
[4] = dose: 100.0 mg/kg/injection, schedule: Q01DX001 (ip), vehicle: saline
[5] = dose: 100.0 mg/kg/injection, schedule: Q01DX009 (ip), vehicle: saline
[6] = dose: 200.0 mg/kg/injection, schedule: Q01DX001 (ip), vehicle: saline
[7] = dose: 200.0 mg/kg/injection, schedule: Q01DX009 (ip), vehicle: saline
[8] = dose: 400.0 mg/kg/injection, schedule: Q01DX001 (ip), vehicle: saline
[9] = dose: 100.0 mg/kg/injection, schedule: Q01DX001 (ip), vehicle: Klucel (hydroxypropylcellulose) (HPC)
[10] = dose: 200.0 mg/kg/injection, schedule: Q01DX001 (ip), vehicle: Klucel (hydroxypropylcellulose) (HPC)
[11] = dose: 400.0 mg/kg/injection, schedule: Q01DX001 (ip), vehicle: Klucel (hydroxypropylcellulose) (HPC)

Measured: T/C

O=C1C(F)=C(N2CC2)C(=O)C(N2CCOCC2)=C1N1CC1
inactive: dose: 0.39 mg/kg/injection, schedule: Q04DX003 (ip), vehicle: saline 94 % of control and 108 % of control | dose: 0.75 mg/kg/injection, schedule: Q01DX009 (ip), vehicle: saline 114 % of control and 122 % of control | dose: 0.78 mg/kg/injection, schedule: Q04DX003 (ip), vehicle: saline 100 % of control | dose: 1.5 mg/kg/injection, schedule: Q01DX009 (ip), vehicle: saline 111 % of control | dose: 1.56 mg/kg/injection, schedule: Q04DX003 (ip), vehicle: saline 102 % of control and 112 % of control | dose: 3.0 mg/kg/injection, schedule: Q01DX009 (ip), vehicle: saline 110 % of control and 112 % of control | dose: 3.12 mg/kg/injection, schedule: Q01DX001 (ip), vehicle: saline 91 % of control | dose: 3.12 mg/kg/injection, schedule: Q04DX003 (ip), vehicle: saline 105 % of control and 107 % of control | dose: 6.0 mg/kg/injection, schedule: Q01DX009 (ip), vehicle: saline 111 % of control | dose: 6.25 mg/kg/injection, schedule: Q01DX001 (ip), vehicle: saline 104 % of control | dose: 6.25 mg/kg/injection, schedule: Q04DX003 (ip), vehicle: saline 105 % of control and 121 % of control | dose: 12.5 mg/kg/injection, schedule: Q01DX001 (ip), vehicle: saline 92 % of control

CCCC[n+]1ccc(C(N)=O)cc1
inactive: dose: 100.0 mg/kg/injection, schedule: Q04DX003 (ip), vehicle: saline 100 % of control | dose: 200.0 mg/kg/injection, schedule: Q04DX003 (ip), vehicle: saline 100 % of control

COc1ccccc1NCS(=O)(=O)O
inactive: [1] 98 % of control | [2] 102 % of control | [3] 100 % of control

O=C(CC(C[N+](=O)[O-])c1ccccc1)c1ccccc1 (configuration not stated)
inactive: dose: 100.0 mg/kg/injection, schedule: Q04DX002 (ip), vehicle: Klucel (hydroxypropylcellulose) (HPC) 96 % of control | dose: 200.0 mg/kg/injection, schedule: Q04DX002 (ip), vehicle: Klucel (hydroxypropylcellulose) (HPC) 100 % of control | dose: 400.0 mg/kg/injection, schedule: Q04DX002 (ip), vehicle: Klucel (hydroxypropylcellulose) (HPC) 96 % of control

CCOC(Cn1ccc(=O)[nH]c1=O)OCC
inactive: dose: 100.0 mg/kg/injection, schedule: Q04DX003 (ip), vehicle: saline sonified 109 % of control | dose: 200.0 mg/kg/injection, schedule: Q04DX003 (ip), vehicle: saline sonified 96 % of control | dose: 400.0 mg/kg/injection, schedule: Q04DX003 (ip), vehicle: saline sonified 105 % of control

Cc1ccc(S(=O)(=O)N2CCC(Br)C(=O)c3ccccc32)cc1 (configuration not stated)
inactive: [4] 94 % of control | [5] 107 % of control | [6] 107 % of control | [7] 109 % of control | [8] 100 % of control | dose: 400.0 mg/kg/injection, schedule: Q01DX009 (ip), vehicle: saline 97 % of control

CCCCCC(C)(C)O
inactive: [4] 96 % of control | [5] 97 % of control | dose: 187.0 mg/kg/injection, schedule: Q01DX001 (ip), vehicle: saline 103 % of control | [6] 98 % of control | [7] 101 % of control | dose: 267.0 mg/kg/injection, schedule: Q01DX001 (ip), vehicle: saline 97 % of control | dose: 600.0 mg/kg/injection, schedule: Q01DX001 (ip), vehicle: saline 92 % of control

CCCCCCCCC/C(C)=C1/SC(=S)NC1=O
inactive: [4] 102 % of control | [5] 88 % of control | [6] 93 % of control | [8] 95 % of control

Cc1cc(Cl)ccc1NC(=O)c1ccc([N+](=O)[O-])cc1
inactive: dose: 100.0 mg/kg/injection, schedule: Q01DX009 (ip), vehicle: saline with Tween-80 92 % of control | [1] 92 % of control | dose: 200.0 mg/kg/injection, schedule: Q01DX009 (ip), vehicle: saline with Tween-80 86 % of control | [2] 93 % of control | [3] 92 % of control

CC1(C)C/C(=C\c2cccc([N+](=O)[O-])c2)C(=O)c2ccccc21
inactive: [9] 94 % of control | [10] 93 % of control | [11] 94 % of control

N#CCCOc1ccccc1
inactive: [4] 108 % of control | [6] 108 % of control | [8] 104 % of control

COc1cc(/C=N\Nc2ccccc2)ccc1OC(=O)c1ccccc1
inactive: dose: 100.0 mg/kg/injection, schedule: Q04DX002 (ip), vehicle: saline with Tween-80 91 % of control | dose: 200.0 mg/kg/injection, schedule: Q04DX002 (ip), vehicle: saline with Tween-80 91 % of control | dose: 400.0 mg/kg/injection, schedule: Q04DX002 (ip), vehicle: saline with Tween-80 98 % of control

COc1ccc(C(=O)NC(=S)Nc2cccc(C)c2C)cc1
inactive: dose: 100.0 mg/kg/injection, schedule: Q01DX009 (ip), vehicle: Klucel (hydroxypropylcellulose) (HPC) 102 % of control | dose: 100.0 mg/kg/injection, schedule: Q04DX003 (ip), vehicle: Klucel (hydroxypropylcellulose) (HPC) 93 % of control | dose: 200.0 mg/kg/injection, schedule: Q01DX009 (ip), vehicle: Klucel (hydroxypropylcellulose) (HPC) 102 % of control | dose: 200.0 mg/kg/injection, schedule: Q04DX003 (ip), vehicle: Klucel (hydroxypropylcellulose) (HPC) 89 % of control | dose: 400.0 mg/kg/injection, schedule: Q01DX009 (ip), vehicle: Klucel (hydroxypropylcellulose) (HPC) 95 % of control | dose: 400.0 mg/kg/injection, schedule: Q04DX003 (ip), vehicle: Klucel (hydroxypropylcellulose) (HPC) 98 % of control

CC(=O)NCCCCCCNC(C)=O
inactive: dose: 10.0 mg/kg/injection, schedule: Q01DX Z (ip), vehicle: saline 100 % of control | dose: 30.0 mg/kg/injection, schedule: Q01DX Z (ip), vehicle: saline 104 % of control | dose: 100.0 mg/kg/injection, schedule: Q01DX Z (ip), vehicle: saline 100 % of control | dose: 300.0 mg/kg/injection, schedule: Q01DX Z (ip), vehicle: saline 100 % of control

O=c1[nH]c2sccc2c(=O)n1O
inactive: [9] 106 % of control | [10] 97 % of control | [11] 97 % of control

OCCSc1ncc2cnccn12
inactive: dose: 100.0 mg/kg/injection, schedule: Q01DX009 (ip), vehicle: water 98 % of control | dose: 100.0 mg/kg/injection, schedule: Q04DX003 (ip), vehicle: water 101 % of control | dose: 200.0 mg/kg/injection, schedule: Q01DX009 (ip), vehicle: water 96 % of control | dose: 200.0 mg/kg/injection, schedule: Q04DX003 (ip), vehicle: water 93 % of control | dose: 400.0 mg/kg/injection, schedule: Q01DX009 (ip), vehicle: water 102 % of control | dose: 400.0 mg/kg/injection, schedule: Q04DX003 (ip), vehicle: water 95 % of control

O=C(Nc1cccc(C2=NCCN2)c1)c1cc(Cl)cc(C(=O)Nc2cccc(C3=NCCN3)c2)c1
inactive: dose: 7.0 mg/kg/injection, schedule: Q01DX Z (ip), vehicle: methylcellulose (MC) 92 % of control | dose: 11.0 mg/kg/injection, schedule: Q01DX Z (ip), vehicle: methylcellulose (MC) 100 % of control | dose: 16.0 mg/kg/injection, schedule: Q01DX Z (ip), vehicle: methylcellulose (MC) 87 % of control | dose: 25.0 mg/kg/injection, schedule: Q01DX Z (ip), vehicle: methylcellulose (MC) 97 % of control

COc1ccc(S(=O)(=O)/N=C(/C2CC3=CCC4C5CCC(=O)C5(C)CC(=O)C4C3(C)C2)N2CCCC2)cc1 (configuration not stated)
inactive: dose: 100.0 mg/kg/injection, schedule: Q01DX001 (ip), vehicle: other 103 % of control | dose: 200.0 mg/kg/injection, schedule: Q01DX001 (ip), vehicle: other 108 % of control | dose: 400.0 mg/kg/injection, schedule: Q01DX001 (ip), vehicle: other 98 % of control

Cc1cc(N(CCOS(C)(=O)=O)CCOS(C)(=O)=O)ccc1C=Nc1ccc(C(=O)O)cc1
inactive: dose: 2.5 mg/kg/injection, schedule: Q04DX003 (ip), vehicle: Klucel (hydroxypropylcellulose) (HPC) 108 % of control | dose: 5.0 mg/kg/injection, schedule: Q04DX003 (ip), vehicle: Klucel (hydroxypropylcellulose) (HPC) 113 % of control | dose: 6.6 mg/kg/injection, schedule: Q04DX003 (ip), vehicle: Klucel (hydroxypropylcellulose) (HPC) 102 % of control | dose: 10.0 mg/kg/injection, schedule: Q04DX003 (ip), vehicle: Klucel (hydroxypropylcellulose) (HPC) 103 % of control | dose: 15.0 mg/kg/injection, schedule: Q04DX003 (ip), vehicle: Klucel (hydroxypropylcellulose) (HPC) 118 % of control | dose: 20.0 mg/kg/injection, schedule: Q04DX003 (ip), vehicle: Klucel (hydroxypropylcellulose) (HPC) 113 % of control | dose: 40.0 mg/kg/injection, schedule: Q04DX003 (ip), vehicle: Klucel (hydroxypropylcellulose) (HPC) 114 % of control
